Reference: US10745398B2, “2-(het)aryl-substituted fused heterocycle derivatives as pesticides” (Bayer CropScience Aktiengesellschaft, priority 2015, dated 2020)

Columns and labels:
[1] = system: larvae of the mustard beetle (Phaedon cochleariae); assay: Phaedon cochleariae - spray test; assay type: in vivo; conditions: application rate 500 g/ha, Chinese cabbage leaf discs, after 7 days
Procedure: (§1) Solvent: 78.0 parts by weight of acetone • • 1.5 parts by weight of dimethylformamide
(§2) Emulsifier: alkylaryl polyglycol ether
(§3) To produce a suitable active compound preparation, 1 part by weight of active compound is dissolved with the stated parts by weight of solvent and made up with water containing an emulsifier concentration of 1000 ppm until the desired concentration is attained. To produce further test concentrations, the preparation is diluted with emulsifier-containing water.
After 7 days, the efficacy in % is determined. 100% means that all the beetle larvae have been killed; 0% means that no beetle larvae have been killed.

[2] = system: unfed adult cat fleas (Ctenocephalides felis); assay: Ctenocephalides felis - oral test; assay type: in vivo; conditions: application rate 100 ppm in citrated cattle blood, after 2 days
Procedure: (§4) Solvent: dimethyl sulphoxide
To produce a suitable active compound preparation, 10 mg of active compound are mixed with 0.5 ml of dimethyl sulphoxide. Dilution with citrated cattle blood gives the desired concentration.
About 20 unfed adult cat fleas (Ctenocephalides felis) are placed into a chamber which is closed at the top and bottom with gauze. A metal cylinder whose bottom end is closed with parafilm is placed onto the chamber. The cylinder contains the blood/active compound preparation, which can be imbibed by the fleas through the parafilm membrane.
After 2 days, the kill in % is determined. 100% means that all of the fleas have been killed; 0% means that none of the fleas have been killed.

[3] = log P (neutral) by HPLC on reversed-phase column (C 18), EEC Directive 79/831 Annex V.A8; assay type: physicochemical; conditions: HPLC reversed-phase C 18, 55° C., neutral range pH 7.8, ammonium hydrogencarbonate/acetonitrile; for chromatographic logP: reversed-phase HPLC column (C 18)
[4] = system: engorged adult female cattle ticks (Boophilus microplus); assay: Boophilus microplus - injection test; assay type: in vivo; conditions: application rate 20 μg/animal, assessed after 7 days
Procedure: as §4
To produce a suitable active compound preparation, 10 mg of active compound are mixed with 0.5 ml of solvent and the concentrate is diluted with solvent to the desired concentration.
1 μl of the active compound solution is injected into the abdomen of 5 engorged adult female cattle ticks (Boophilus microplus). The animals are transferred into dishes and kept in a climate-controlled room.
Efficacy is assessed after 7 days by laying of fertile eggs. Eggs which are not visibly fertile are stored in a climate-controlled cabinet until the larvae hatch after about 42 days. An efficacy of 100% means that none of the ticks has laid any fertile eggs; 0% means that all the eggs are fertile.

[5] = system: L1 larvae of the Australian sheep blowfly (Lucilia cuprina); assay: Lucilia cuprina test; assay type: in vivo; conditions: application rate 100 ppm, after 2 days
Procedure: as §4
(§5) To produce a suitable active compound preparation, 10 mg of active compound are mixed with 0.5 ml of dimethyl sulphoxide, and the concentrate is diluted with water to the desired concentration.
About 20 L1 larvae of the Australian sheep blowfly (Lucilia cuprina) are transferred into a test vessel containing minced horsemeat and the active compound preparation of the desired concentration.
After 2 days, the kill in % is determined. 100% means that all the larvae have been killed; 0% means that no larvae have been killed.

[6] = system: caterpillars of the armyworm (Spodoptera frugiperda); assay: Spodoptera frugiperda - spray test; assay type: in vivo; conditions: application rate 500 g/ha, maize leaf discs, after 7 days
Procedure: as §1, §2, §3
Leaf discs of maize (Zea mays) are sprayed with an active compound preparation of the desired concentration and, after drying, populated with caterpillars of the armyworm (Spodoptera frugiperda).
After 7 days, the efficacy in % is determined. 100% means that all the caterpillars have been killed; 0% means that no caterpillar has been killed.

[7] = system: adult houseflies (Musca domestica); assay: Musca domestica test; assay type: in vivo; conditions: application rate 100 ppm, after 2 days
Procedure: as §4, §5
Vessels containing a sponge treated with sugar solution and the active compound preparation of the desired concentration are populated with 10 adult houseflies (Musca domestica).
After 2 days, the kill in % is determined. 100% means that all of the flies have been killed; 0% means that none of the flies have been killed.

[8] = system: green peach aphid (Myzus persicae); assay: Myzus persicae - spray test; assay type: in vivo; conditions: application rate 500 g/ha, Chinese cabbage leaf discs, after 5-6 days
Procedure: Solvent: 78 parts by weight of acetone • • 1.5 parts by weight of dimethylformamide
as §2, §3
Discs of Chinese cabbage leaves (Brassica pekinensis) infested by all stages of the green peach aphid (Myzus persicae) are sprayed with an active compound preparation of the desired concentration.
After 5-6 days, the efficacy in % is determined. 100% means that all the aphids have been killed; 0% means that no aphids have been killed.

Compound | efficacy (beetle larvae killed) [1] [%] | efficacy (kill in %) [2] [%] | log P (neutral) [3] | efficacy (no laying of fertile eggs) [4] [%] | efficacy (kill in %) [5] [%] | efficacy (caterpillars killed) [6] [%] | efficacy (kill in %) [7] [%] | efficacy (aphids killed) [8] [%] | chromatographic logP [3]
CCS(=O)(=O)c1ccc(-n2cc(-c3cccc(Br)c3)cn2)nc1-c1nc2cc(C(F)(F)F)ncc2n1C [Example I-12] | 100 | 100 | Example I-12: logP (neutral): 4.48 ^1H-NMR(400.0 MHz, d6-DMSO): δ = | 90 | 100 | 100 |  |  | 
CCS(=O)(=O)c1ccc(-c2cc(-c3ccccc3)no2)nc1-c1nc2cc(C(F)(F)F)ncc2n1C [Example I-31] |  |  | Example I-31: logP (neutral): 3.81 1H-NMR(400.0 MHz, d6-DMSO): □ = |  |  | 100 |  |  | 
CCS(=O)(=O)c1ccc(-n2cc(-c3ccc(Cl)cc3)cn2)nc1-c1nc2cc(C(F)(F)F)ncc2n1C [Example I-10] | 100 |  | Example I-10: logP (neutral): 4.33 ^1H-NMR(400.0 MHz, d6-DMSO): δ = |  |  |  |  |  | 
CCS(=O)(=O)c1ccc(-n2cc(Cl)c(-c3ccc(F)c(Cl)c3)n2)nc1-c1nc2cc(C(F)(F)F)ncc2n1C [Example I-25] | 100 |  | Example I-25: logP (neutral): 5.23 1H-NMR(400.0 MHz, d6-DMSO): □ = |  |  |  |  |  | 
CCS(=O)(=O)c1ccc(-n2ncn(-c3ccc(Cl)cc3)c2=O)nc1-c1nc2cc(C(F)(F)F)ncc2n1C [Example I-19] | 100 | 100 | Example I-19: logP (neutral): 2.82 1H-NMR(400.0 MHz, d6-DMSO): □ = | 80 | 100 | 100 | 80 |  | 
CCS(=O)(=O)c1ccc(-n2cnn(-c3ccccc3F)c2=O)nc1-c1nc2cc(C(F)(F)F)ccc2n1C [Example I-34] | 100 |  |  |  |  | 100 |  |  | 
CCS(=O)(=O)c1ccc(-n2nnn(-c3ccc(Cl)cc3)c2=O)nc1-c1nc2cc(C(F)(F)F)ncc2n1C [Example I-21] | 100 | 80 | Example I-21: logP (neutral): 3.71: 1H-NMR(400.0 MHz, d6-DMSO): □ = |  | 100 | 100 |  |  | 
CCS(=O)(=O)c1ccc(-n2cnc(-c3ccccn3)n2)nc1-c1nc2cc(C(F)(F)F)ncc2n1C [Example I-26] | 100 |  | Example I-26: logP (neutral): 2.43 1H-NMR(400.0 MHz, d6-DMSO): □ = |  |  | 100 |  | 90 | 
CCS(=O)(=O)c1ccc(-n2cc(-c3ccccc3)cn2)nc1-c1nc2cc(C(F)(F)F)ncc2n1C [Example I-9] | 100 |  | Example I-9: logP (neutral): 3.92 ^1H-NMR(400.0 MHz, d6-DMSO): δ = |  |  | 100 |  |  | 
CCS(=O)(=O)c1ccc(-n2ccc(-c3cccc(Cl)c3)n2)nc1-c1nc2cc(C(F)(F)F)ncc2n1C [Example I-23] | 100 | 100 | Example I-23: logP (neutral): 4.64 1H-NMR(400.0 MHz, d6-DMSO): □ = |  | 100 | 100 |  |  | 
CCS(=O)(=O)c1ccc(-c2cnn(-c3ccccc3F)c2)nc1-c1nc2cc(C(F)(F)F)ncc2n1C [Example I-28] | 100 | 100 | Example I-28: logP (neutral): 3.38 1H-NMR(400.0 MHz, d6-DMSO): □ = |  | 100 | 100 |  |  | 
CCS(=O)(=O)c1ccc(-n2cnc(-c3cccnc3)n2)nc1-c1nc2cc(C(F)(F)F)ncc2n1C [Example I-27] | 100 |  | Example I-27: logP (neutral): 2.54 1H-NMR(400.0 MHz, d6-DMSO): □ = |  |  | 100 |  |  | 
CCS(=O)(=O)c1ccc(-n2cc(-c3ncccc3Cl)cn2)nc1-c1nc2cc(C(F)(F)F)ncc2n1C [Example I-7] | 100 | 100 | Example I-7: logP (neutral): 3.66 ^1H-NMR(400.0 MHz, d6-DMSO): δ = |  | 100 | 100 |  |  | 
CCS(=O)(=O)c1ccc(N2CCN(c3ccc(Cl)cc3)C2=O)nc1-c1nc2cc(C(F)(F)F)ncc2n1C [Example I-5] | 100 |  | Example I-5: logP (neutral): 3.86 ^1H-NMR(400.0 MHz, d6-DMSO): δ = |  |  | 100 |  |  | 
CCS(=O)(=O)c1ccc(-n2nnn(-c3ccccc3Cl)c2=O)nc1-c1nc2cc(C(F)(F)F)ncc2n1C [Example I-4] |  |  |  |  |  | 100 |  |  | 
CCS(=O)(=O)c1ccc(-n2ccc(-c3ccc(Cl)cc3)n2)nc1-c1nc2cc(C(F)(F)F)ncc2n1C [Example I-6] | 100 | 90 | Example I-6: logP (neutral): 4.62 ^1H-NMR(400.0 MHz, d6-DMSO): δ = |  | 100 | 83 |  |  | 
CCS(=O)(=O)c1ccc(-n2nc(C(F)(F)F)n(-c3ccccc3)c2=O)nc1-c1nc2cc(C(F)(F)F)ncc2n1C [Example I-22] | 100 |  |  |  |  | 100 |  |  | 
CCS(=O)(=O)c1ccc(-n2cnn(-c3ccc(Cl)cc3Cl)c2=O)nc1-c1nc2cc(C(F)(F)F)ncc2n1C [Example I-2, 2-(2,4-Dichlorophenyl)-4-[5-ethylsulfonyl-6-[3-methyl-6-(trifluoromethyl)imidazo[4,5-c]pyridin-2-yl]-2-pyridyl]-1,2,4-triazol-3-one] | 100 |  |  |  | 100 | 100 | 90 |  | 3.71
CCS(=O)(=O)c1ccc(-n2ccc(-c3ccco3)n2)nc1-c1nc2cc(C(F)(F)F)ncc2n1C [Example I-14] |  |  | Example I-14: logP (neutral): 3.47 1H-NMR(601.6 MHz, d6-DMSO): □ = |  |  |  |  |  | 
CCS(=O)(=O)c1ccc(-n2cnn(-c3ccccc3F)c2=O)nc1-c1cn2cnc(C(F)(F)F)cc2n1 [Example I-35, 4-{5-(Ethylsulfonyl)-6-[7-(trifluoromethyl)imidazo[1,2-c]pyrimidine-2-yl]pyridin-2-yl}-2-(2-fluorophenyl)-2,4-dihydro-3H-1,2,4-triazol-3-one] | 100 |  |  |  |  | 100 |  |  | 3.16
CCS(=O)(=O)c1ccc(-n2cnn(-c3c(F)cccc3F)c2=O)nc1-c1nc2cc(C(F)(F)F)ncc2n1C [Example I-20] |  |  | Example I-20: logP (neutral): 3.13 1H-NMR(400.0 MHz, d6-DMSO): □ = |  |  |  |  |  | 
CCS(=O)(=O)c1ccc(-n2ncn(-c3ccc(Br)cc3)c2=O)nc1-c1nc2cc(C(F)(F)F)ncc2n1C [Example I-16] | 100 | 100 |  |  | 100 | 100 | 80 |  | 
CCS(=O)(=O)c1ccc(-n2ccc(-c3ccccc3Cl)n2)nc1-c1nc2cc(C(F)(F)F)ncc2n1C [Example I-13] | 100 |  | Example I-13: logP (neutral): 4.58 ^1H-NMR(400.0 MHz, d6-DMSO): δ = |  |  |  |  |  | 
CCS(=O)(=O)c1ccc(-n2cc(-c3ccc(F)cc3)cn2)nc1-c1nc2cc(C(F)(F)F)ncc2n1C [Example I-11] | 100 |  | Example I-11: logP (neutral): 4.17 ^1H-NMR(400.0 MHz, d6-DMSO): δ = |  |  |  |  |  | 
